≈ marks a conversion by molar mass, not a printed value. Where “and” joins values, the source holds several entries; their conditions need not be identical. Equal values may be shown once. Read-outs that look alike come from different tables or passages of the source.
How the values were obtained:
S. pneumoniae = assay: Broth microdilution MIC (Example 11); settings: Streptococcus pneumoniae
Escherichia coli = assay: Broth microdilution MIC (Example 11)
S. agalactiae = assay: Broth microdilution MIC (Example 11); settings: Streptococcus agalactiae
[1] = tested on: Staphylococcus aureus (MRSA); assay: Broth microdilution MIC (Example 11)
E. faecalis = assay: Broth microdilution MIC (Example 11); settings: Enterococcus faecalis, VRE, VRE Lev^R Cip^R Ery^R
B. cepacia = assay: FIC checkerboard assay; assay type: cell-based; settings: Burkholderia cepacia, Meropenem alone (checkerboard with BisEDT), read-out: Drug B MIC
P. aeruginosa = assay: FIC checkerboard assay; assay type: cell-based; settings: for MIC: Pseudomonas aeruginosa
Acinetobacter baumannii = assay: Broth microdilution MIC (Example 11); settings: Acinetobacter baumannii
Pseudomonas aeruginosa = assay: Broth microdilution MIC (Example 11); settings: Pseudomonas aeruginosa
Enterobacter cloacae = assay: Broth microdilution MIC (Example 11); settings: ATCCBAA2468
B. cenocepacia = assay: FIC checkerboard assay; assay type: cell-based; settings: for FICB: FIC of Meropenem in combination with BisEDT; for FICB / MICB: per checkerboard row; for MICB: MIC of Meropenem in combination with BisEDT; for MIC: Burkholderia cenocepacia, Meropenem alone (panel with BisEDT), read-out: Drug B MIC
Klebsiella pneumoniae = assay: Broth microdilution MIC (Example 11)
S. pyogenes = assay: Broth microdilution MIC (Example 11); settings: Streptococcus pyogenes

C[C@@H](O)[C@H]1C(=O)N2C(C(=O)O)=C(S[C@@H]3CN[C@H](C(=O)N(C)C)C3)[C@H](C)[C@H]12 [Meropenem, reference compound]
MIC (S. pneumoniae; ATCC49619, S. pneumoniae MMX 6837 (ATCC 49619), QC): 0.06 µg/mL (≈ 0.156 µM) | MIC (S. pneumoniae; S. pneumoniae MMX 880, Lev^R SXT^R CC^R Ery^R Pen^R): 0.5 µg/mL (≈ 1.3 µM) | MIC (S. pneumoniae; S. pneumoniae MMX 937, Mem^R SXT^R CC^R Ery^R Pen^R): 1 µg/mL (≈ 2.61 µM) | MIC (S. pneumoniae; S. pneumoniae MMX 3959, CC^R Ery^R): 0.03 µg/mL (≈ 0.0782 µM) | MIC (S. pneumoniae; S. pneumoniae MMX 5440, Mem^R SXT^R CC^R Ery^R Pen^R): 1 µg/mL (≈ 2.61 µM) | MIC (S. pneumoniae; S. pneumoniae MMX 5445, Mem^R SXT^R CC^R Ery^R Pen^R): 1 µg/mL (≈ 2.61 µM) | MIC (S. pneumoniae; S. pneumoniae MMX 8133, Mem^R SXT^R CC^R Ery^R Pen^R): 1 µg/mL (≈ 2.61 µM) | MIC (Escherichia coli; ATCC25922, E. coli MMX 102 (ATCC 25922), QC): 0.03 µg/mL (≈ 0.0782 µM) | MIC (Escherichia coli; ATCCBAA2469, E. coli MMX 5980 (ATCC BAA-2469), NDM-1, Lev^R, MEM^R, CAZ^R, Gm^R): 32 µg/mL (≈ 83.4 µM) | MIC (Escherichia coli; E. coli MMX 8423, ESBL, Lev^R, CAZ^R, Gm^R): 0.03 µg/mL (≈ 0.0782 µM) | MIC (Escherichia coli; E. coli MMX 8424, ESBL, CAZ^R): 0.03 µg/mL (≈ 0.0782 µM) | MIC (Escherichia coli; E. coli MMX 8425, ESBL, Lev^R, CAZ^R, Gm^R): 0.015 µg/mL (≈ 0.0391 µM) | MIC (S. agalactiae; S. agalactiae MMX 3741, ERY^R CC^R): 0.03 µg/mL (≈ 0.0782 µM) | MIC (S. agalactiae; S. agalactiae MMX 3743, ERY^R CC^R): 0.06 µg/mL (≈ 0.156 µM) | MIC (S. agalactiae; S. agalactiae MMX 4077, ERY^R CC^R): 0.06 µg/mL (≈ 0.156 µM) | MIC (S. agalactiae; S. agalactiae MMX 4079, ERY^R CC^R Pen^R MEM^R): 8 µg/mL (≈ 20.9 µM) | MIC (S. agalactiae; S. agalactiae MMX 4086, ERY^R CC^R): 0.06 µg/mL (≈ 0.156 µM) | MIC ([1]; ATCC29213|MRSA|MSSA, S. aureus MMX 101 (ATCC 29213), QC, MSSA): 0.06 µg/mL (≈ 0.156 µM) | MIC ([1]; MRSA, S. aureus MMX 5373, MRSA Lev^R Cip^R CC^R Ery^R Ox^R): 32 µg/mL (≈ 83.4 µM) | MIC ([1]; MRSA, S. aureus MMX 6311, MRSA Lev^R Cip^R CC^R Ery^R Ox^R): 8 µg/mL (≈ 20.9 µM) | MIC ([1]; MRSA, S. aureus MMX 9203, MRSA Lev^R Cip^R Ery^R Ox^R): 4 µg/mL (≈ 10.4 µM) | MIC ([1]; MRSA, S. aureus MMX 9204, MRSA Lev^R Cip^R Ery^R Ox^R): 4 µg/mL (≈ 10.4 µM) | MIC ([1]; MRSA, S. aureus MMX 9205, MRSA Lev^R Cip^R CC^R Ery^R Ox^R): 64 µg/mL (≈ 167 µM) | MIC (E. faecalis; E. faecalis MMX 8960): 8 µg/mL (≈ 20.9 µM) | MIC (E. faecalis; E. faecalis MMX 8961): 8 µg/mL (≈ 20.9 µM) | MIC (E. faecalis; E. faecalis MMX 8962): 2 µg/mL (≈ 5.22 µM) | MIC (B. cepacia; B. cepacia 546): 4 µg/mL | MIC (B. cepacia; B. cepacia 1793): 4 µg/mL | MICB (Drug B in combination) (P. aeruginosa; P. aeruginosa 6322, with BisEDT, checkerboard rows C-G): 16 µg/mL | MIC (P. aeruginosa; P. aeruginosa 6322, checkerboard panel BisEDT/Meropenem, read-out: Drug B MIC (alone)): 16 µg/mL | MIC (P. aeruginosa; P. aeruginosa 6977, Meropenem alone (checkerboard with BisEDT), read-out: Drug B MIC): 8 µg/mL | MIC (P. aeruginosa; P. aeruginosa 7745, Meropenem alone (checkerboard with BisEDT), read-out: Drug B MIC): 16 µg/mL | MIC (P. aeruginosa; P. aeruginosa 8798, Meropenem alone (checkerboard with BisEDT), read-out: Drug B MIC): 32 µg/mL | MIC (P. aeruginosa; P. aeruginosa 9108, Meropenem alone (checkerboard with BisEDT), read-out: Drug B MIC): 1 µg/mL | MIC (Acinetobacter baumannii; A. baumannii MMX 2592, MDR, Lev^R, Cip^R, MEM^R, CAZ^R, Gm^R): 64 µg/mL (≈ 167 µM) | MIC (Acinetobacter baumannii; A. baumannii MMX 2593, MDR, Lev^R, Cip^R, MEM^R, CAZ^R, Gm^R): 64 µg/mL (≈ 167 µM) | MIC (Acinetobacter baumannii; A. baumannii MMX 3372, MDR, Cip^R, MEM^I, CAZ^I): 4 µg/mL (≈ 10.4 µM) | MIC (Acinetobacter baumannii; A. baumannii MMX 3373, Sensitive): 0.5 µg/mL (≈ 1.3 µM) | MIC (Acinetobacter baumannii; NCTC13304, A. baumannii MMX 4651 (NCTC 13304), MDR, OXA-27, Lev^R, Cip^R, MEM^R, CAZ^R, Gm^I): 64 µg/mL (≈ 167 µM) | MIC (Pseudomonas aeruginosa; ATCC27853, P. aeruginosa MMX 103 (ATCC 27853), QC): 0.5 µg/mL (≈ 1.3 µM) | MIC (Pseudomonas aeruginosa; P. aeruginosa MMX 1381, MDR, Lev^R, Cip^R, MEM^R, CAZ^R): 16 µg/mL (≈ 41.7 µM) | MIC (Pseudomonas aeruginosa; P. aeruginosa MMX 2562, MDR, Lev^R, Cip^R, MEM^R, CAZ^R): 32 µg/mL (≈ 83.4 µM) | MIC (Pseudomonas aeruginosa; P. aeruginosa MMX 3991, MDR, Lev^R, Cip^R, MEM^R, CAZ^R): 16 µg/mL (≈ 41.7 µM) | MIC (Pseudomonas aeruginosa; P. aeruginosa MMX 4654, IMP-7, Lev^R, Cip^R, MEM^R, CAZ^R): > 64 µg/mL | MIC (Pseudomonas aeruginosa; P. aeruginosa MMX 4697, VIM-2, Lev^R, Cip^R, MEM^R, CAZ^R): 8 µg/mL (≈ 20.9 µM) | MIC (Enterobacter cloacae): > 64 µg/mL | FICB (B. cenocepacia; B. cenocepacia 548): 0.5 and 1 | MICB (B. cenocepacia; B. cenocepacia 548): 2 µg/mL and 4 µg/mL | FICB (B. cenocepacia; B. cenocepacia 813): 0.5 and 1 | MICB (B. cenocepacia; B. cenocepacia 813): 1 µg/mL and 2 µg/mL | MIC (B. cenocepacia; B. cenocepacia 548): 4 µg/mL | MIC (B. cenocepacia; B. cenocepacia 813): 2 µg/mL | MIC (Klebsiella pneumoniae; K. pneumoniae MMX 4622, KPC-2, MEM^R, CAZ^R): > 64 µg/mL | MIC (Klebsiella pneumoniae; K. pneumoniae MMX 4623, KPC-2, MEM^R, CAZ^R, GM^R): > 64 µg/mL | MIC (Klebsiella pneumoniae; K. pneumoniae MMX 4653, KPC-3, Lev^R, MEM^R, CAZ^R): > 64 µg/mL | MIC (Klebsiella pneumoniae; K. pneumoniae MMX 4683, KPC-2, Lev^R, MEM^R, CAZ^R): 32 µg/mL (≈ 83.4 µM) | MIC (Klebsiella pneumoniae; K. pneumoniae MMX 4684, ESBL, MEM^R): 8 µg/mL (≈ 20.9 µM) | MIC (Klebsiella pneumoniae; K. pneumoniae MMX 4685, ESBL, Lev^R, MEM^R, CAZ^R): 4 µg/mL (≈ 10.4 µM) | MIC (Klebsiella pneumoniae; K. pneumoniae MMX 4694, KPC-3, Lev^R, MEM^R, CAZ^R): 32 µg/mL (≈ 83.4 µM) | MIC (Klebsiella pneumoniae; K. pneumoniae MMX 5979, NDM-1, Lev^R, MEM^R, CAZ^R, Gm^R): > 64 µg/mL | MIC (S. pyogenes; S. pyogenes MMX 3068, Ery^R): ≤ 0.008 µg/mL | MIC (S. pyogenes; S. pyogenes MMX 3820, ERY^R CLI^R): ≤ 0.008 µg/mL | MIC (S. pyogenes; S. pyogenes MMX 3919, ERY^R): ≤ 0.008 µg/mL | MIC (S. pyogenes; S. pyogenes MMX 3929, ERY^R CC^R): ≤ 0.008 µg/mL | MIC (S. pyogenes; S. pyogenes MMX 5091, ERY^R CC^R): ≤ 0.008 µg/mL

From patent publication US11464749B2, “Bismuth-thiol compositions and methods of use” (Microbion Corporation, priority 2018, dated 2022)
